Patent publication US10576050B2, “Methods and compositions for treatment of cancer” (ONCONOVA THERAPEUTICS, INC., priority 2012, dated 2020)

How the values were obtained:
[1] = Phase I/II trials of intravenous Rigosertib in MDS patients: bone marrow blast response and overall survival
Protocol: According to one embodiment, Rigosertib was given as an intravenous infusion to MDS patients. In one trial, patients received 800 mg Rigosertib for three to five days every other week. According to another embodiment, patients received 650 to 1,700 mg Rigosertib for three to six days every other week. According to yet another embodiment, patients were initially treated with 800 mg to 1,500 mg Rigosertib for two days every week for three weeks followed by one week without treatment. The treatment schedule in these studies was later changed to 1,800 mg Rigosertib for three days every other week.
In this Example, bone marrow (BM) response and overall survival (OS) were analyzed in 60 patients (pts) with MDS, including 51 patients with refractory anemia and excess blasts (RAEB) and 9 patients with refractory cytopenia and multilineage dysplasia (RCMD) enrolled in 4 independent Phase 1/II clinical trials.
The patients were treated with Rigosertib administered as a continuous intravenous infusion (CIV) from 2 to 6 days weekly or every other week with BM response initially assessed per protocol by week 4 or 8 and every 8 weeks thereafter. Overall survival (OS) analyses were performed by the method of Kaplan-Meier.

[2] = tested on: human GM-CSF-dependent erythroblastic TF-1 cell line; test: In vitro effect of ON 01910.Na on cell cycle readouts in TF-1 cells by SCNP; format: cell-based; conditions: 24 hours
Protocol: FIG. 2: In vitro effect of ON 01910.Na at clinically relevant concentrations on intracellular pathways in human GM-CSF-dependent erythroblastic TF-1 cell line using SCNP was evaluated in order to monitor transitional changes in the cell cycle, with a focus on the G2-M phase and to perform dose-dependent titrations of drug using these cell cycle readouts. The reagents chosen to measure cell cycle readouts were fluorochrome-conjugated antibodies that recognize cyclin B1, p-histone H3(S28) and p-Cdk1(Y15) and 4′6′-diamino-2-phenylindole (DAPI). […] TF-1 cell DNA content measured by DAPI verified this to be the case as increases in G2/M and sub-G1 (a measure of apoptotic cell death) were simultaneously observed. […] These effects were also observed at 48 hours, although with more cell death. This assay was used to measure the pharmacodynamics activity of the drug in MDS patient samples pre- and post-treatment with ON 01910.Na.

[3] = Phase 1 oral bioavailability study of Rigosertib soft gelatin capsule in MDS patients, fasted and fed, vs IV; format: in vivo, human; conditions: for AUC / Cmax / Tmax / half-life / bioavailability: human, plasma, MDS patients
Protocol: A Phase 1 study was conducted to assess oral bioavailability of a novel oral ON 01910.Na (Rigosertib) soft gelatin capsule formulation of Example 1 in MDS patients under fasted and fed conditions. This was a single-dose, three-treatment, three-period sequential design for studying the effects of food on the bioavailability of an immediate-release soft gelatin capsule formulation. The following dosing groups were tested in 12 patients: IV Dose 800 mg over 24 hours and oral dose 560 mg (2×280 mg capsules) under fasting and fed conditions. Plasma samples were collected pre-dose, over 32 hours (IV dose) or 8 hours (oral dose) after dose initiation. Rigosertib plasma levels were analyzed by a validated LC/MS/MS method. Pharmacokinetic parameters were estimated by non-compartmental analysis (WinNonlin®).

[4] = Dose escalation of oral Rigosertib twice daily in patients with refractory solid tumors; format: in vivo, human; conditions: BID continuously, 25 patients
Protocol: Twenty-five patients with histologically confirmed solid tumors refractory to standard therapy were given escalating doses of oral Rigosertib twice daily. Doses were increased according to a schedule until the appearance of grade 2 or grade 3/4 toxicities. The maximum tolerated dose (MTD) of oral Rigosertib administered twice daily continuously is 560 mg BID. Dysuria was identified as a potential dose-limiting adverse event and a reported toxicity. […] The antitumor activity in this study supported past observations of Rigosertib efficacy in other solid tumor clinical trials. Pharmacokinetic (PK) data reveal plasma levels with oral Rigosertib were above the predicted pharmacodynamically active levels. Final safety and efficacy results, plasma and urinary PK relationships, and mutational analyses from archival tissue are presented

[5] = Oral administration of Rigosertib 25 mg dose capsule in MDS patients, plasma level
[6] = 39 RAEB-1, 2, t-pts refractory or relapsing after azacitidine/decitabine
[7] = higher risk MDS patients who had previously failed Vidaza or Dacogen
[8] = iv, 800 mg, 800 mg IV (24 hr infusion)
[9] = po, 560 mg, 560 mg Oral (Fasting)

**Q.** Which “patients still alive at 49 weeks” value ([1]; 15 patients refractory/relapsing after hypomethylating agents, 3-day infusions 1800 mg/day every other week) does the source give for COc1cc(OC)c(/C=C/S(=O)(=O)Cc2ccc(OC)c(NCC(=O)[O-])c2)c(OC)c1.[Na+] [Rigosertib, sodium (E)-2-{2-methoxy-5-[(2′,4′,6′-trimethoxystyrylsulfonyl)methyl]phenylamino}acetate] here?
**A.** Its value is 47%.

**Q.** And the “N patients with Progressive Disease” value [1, 6]?
**A.** Its value is 3.

**Q.** And the “N patients with Stable BM Response” value [1, 6]?
**A.** The value was 14.

**Q.** What about the “N patients with ≥50% Blast Decrease” value [1, 6] of the same molecule?
**A.** The value was 13.

**Q.** And the “Median OS” value ([1]; 39 pts refractory/relapsing after azacitidine/decitabine, BM response Not Assessed)?
**A.** The value was 11 weeks.

**Q.** And the “Median OS” value ([1]; 39 pts refractory/relapsing after azacitidine/decitabine, Progressive Disease)?
**A.** The value was 10 weeks.

**Q.** And the “Median OS” value ([1]; 39 pts refractory/relapsing after azacitidine/decitabine, Stable BM Response)?
**A.** The value was 40 weeks.

**Q.** What about the “Median OS” value ([1]; 39 pts refractory/relapsing after azacitidine/decitabine, ≥50% Blast Decrease) of the same molecule?
**A.** The value was 44 weeks.

**Q.** What about the “N patients with Progressive Disease” value ([1]; 51 RAEB-1, 2, t-pts) of the same molecule?
**A.** The value was 4.

**Q.** What about the “N patients with Stable BM Response” value ([1]; 51 RAEB-1, 2, t-pts) of the same molecule?
**A.** Its value is 21.

**Q.** What about the “N patients with ≥50% Blast Decrease” value ([1]; 51 RAEB-1, 2, t-pts) of the same molecule?
**A.** Its value is 16.

**Q.** What about the “Median OS” value ([1]; 51 RAEB-1, 2, t-pts, BM response Not Assessed) of the same molecule?
**A.** The value was 11 weeks.

**Q.** And the “Median OS” value ([1]; 51 RAEB-1, 2, t-pts, Progressive Disease)?
**A.** The value was 13.5 weeks.

**Q.** What about the “Median OS” value ([1]; 51 RAEB-1, 2, t-pts, Stable BM Response) of the same molecule?
**A.** Its value is 36 weeks.

**Q.** And the “Median OS” value ([1]; 51 RAEB-1, 2, t-pts, ≥50% Blast Decrease)?
**A.** Its value is 48 weeks.

**Q.** What about the “patients with hematological improvements” value ([1]; 60 MDS patients, CIV) of the same molecule?
**A.** Its value is “Nine”.

**Q.** What about the tolerability of infusions ([1]; CIV infusions, MDS patients) of the same molecule?
**A.** Its tolerability of infusions is “well tolerated without evidence of bone marrow myelotoxicity”.

**Q.** What about the median survival ([1]; Intermediate-1 risk MDS patients, previously failed azacitidine or decitabine) of the same molecule?
**A.** The median survival was “about 77 weeks”.

**Q.** What about the median survival ([1]; Intermediate-2 risk MDS patients, previously failed azacitidine or decitabine) of the same molecule?
**A.** Its median survival is “about 37 weeks”.

**Q.** And the “decrease in immature bone marrow cells” value ([1]; MDS patients who had previously failed azacitidine or decitabine)?
**A.** Its value is “about 50%”.

**Q.** And the “decrease or stabilization in the number of immature bone marrow cells (blasts)” value ([1]; MDS patients, intravenous infusion, in general)?
**A.** Its value is no less than 50%.

**Q.** And the “Median OS” value ([1]; RAEB-1, 17 of 60 MDS patients, CIV)?
**A.** The value was 43 weeks.

**Q.** And the “Median OS” value ([1]; RAEB-2, 21 of 60 MDS patients, CIV)?
**A.** The value was 37 weeks.

**Q.** And the “Median OS” value ([1]; RAEB-T, 13 of 60 MDS patients, CIV)?
**A.** Its value is 20 weeks.

**Q.** What about the “Median OS” value ([1]; RCMD, 9 of 60 MDS patients, CIV) of the same molecule?
**A.** The value was 98 weeks.

**Q.** What about the “decrease or stabilization in the number of immature bone marrow cells” value [1, 7] of the same molecule?
**A.** Its value is no less than 50%.

**Q.** What about the median survival [1, 7] of the same molecule?
**A.** Its median survival is “about 36 weeks”.

**Q.** And the “effect on G2/M cell cycle transition” value ([2]; DAPI DNA content)?
**A.** Its value is “mitotic arrest with subsequent apoptosis”.

**Q.** What about the “drug concentration of maximal effects on cell cycle signaling molecules” value ([2]; cyclin B1, p-histone H3(S28), p-Cdk1(Y15)) of the same molecule?
**A.** Its value is 0.37 µM.

**Q.** And the “decrease of AUC after a meal as compared to fasting conditions” value ([3]; 560 mg oral, fed vs fasting)?
**A.** Its value is 61%.

**Q.** What about the “decrease of Cmax after a meal as compared to fasting conditions” value ([3]; 560 mg oral, fed vs fasting) of the same molecule?
**A.** The value was 77%.

**Q.** What about the AUC [3, 8] of the same molecule?
**A.** Its AUC is 52700 ± 19200 ng·h/mL.

**Q.** What about the Cmax [3, 8] of the same molecule?
**A.** The Cmax was 3140 ± 1130 ng/mL.

**Q.** What about the Tmax [3, 8] of the same molecule?
**A.** The Tmax was 2.91 ± 1.3 h.

**Q.** And the half-life [3, 8]?
**A.** The half-life was 3.25 ± 0.97 h.

**Q.** And the AUC [3, 9]?
**A.** Its AUC is 6890 ± 3980 ng·h/mL.

**Q.** What about the Cmax [3, 9] of the same molecule?
**A.** The Cmax was 2420 ± 1260 ng/mL.

**Q.** What about the Tmax [3, 9] of the same molecule?
**A.** The Tmax was 1 ± 0.45 h.

**Q.** What about the bioavailability [3, 9] of the same molecule?
**A.** Its bioavailability is 34.9 ± 17.6%.

**Q.** What about the half-life [3, 9] of the same molecule?
**A.** The half-life was 2.79 ± 1.23 h.

**Q.** What about the AUC ([3]; po, 560 mg, 560 mg Oral (Fed)) of the same molecule?
**A.** Its AUC is 2710 ± 1510 ng·h/mL.

**Q.** And the Cmax ([3]; po, 560 mg, 560 mg Oral (Fed))?
**A.** The Cmax was 560 ± 310 ng/mL.

**Q.** And the Tmax ([3]; po, 560 mg, 560 mg Oral (Fed))?
**A.** The Tmax was 2.82 ± 1.15 h.

**Q.** And the bioavailability ([3]; po, 560 mg, 560 mg Oral (Fed))?
**A.** The bioavailability was 13.8 ± 6.04%.

**Q.** And the half-life ([3]; po, 560 mg, 560 mg Oral (Fed))?
**A.** Its half-life is 2.61 ± 0.93 h.

**Q.** And the “maximum tolerated dose (MTD)” value [4]?
**A.** The value was 560 mg.

**Q.** What about the half-life ([5]; human, plasma, po, 25 mg) of the same molecule?
**A.** The half-life was roughly 10 h.

**Q.** What about the plasma peak level ([5]; oral, 25 mg dose capsule, MDS patients) of the same molecule?
**A.** Its plasma peak level is 2 to 4 µM.
